target: T1, Avi-tagged FL MALT-1 (Homo sapiens, UniProt Q9UDY8); test: MALT-1 Fluorogenic Peptide Cleavage Assay (MALT1 inhibition assay); assay type: biochemical; conditions: Ac-LRSR-AMC peptide substrate; 30 min pre-incubation, 90 min reaction at room temperature; fluorescence
T1 construct: Avi-tagged FL MALT-1 (Pharmaron, stored at −70° C.); Avi-tag; purchased Pharmaron
T1 sequence (Q9UDY8 1-824): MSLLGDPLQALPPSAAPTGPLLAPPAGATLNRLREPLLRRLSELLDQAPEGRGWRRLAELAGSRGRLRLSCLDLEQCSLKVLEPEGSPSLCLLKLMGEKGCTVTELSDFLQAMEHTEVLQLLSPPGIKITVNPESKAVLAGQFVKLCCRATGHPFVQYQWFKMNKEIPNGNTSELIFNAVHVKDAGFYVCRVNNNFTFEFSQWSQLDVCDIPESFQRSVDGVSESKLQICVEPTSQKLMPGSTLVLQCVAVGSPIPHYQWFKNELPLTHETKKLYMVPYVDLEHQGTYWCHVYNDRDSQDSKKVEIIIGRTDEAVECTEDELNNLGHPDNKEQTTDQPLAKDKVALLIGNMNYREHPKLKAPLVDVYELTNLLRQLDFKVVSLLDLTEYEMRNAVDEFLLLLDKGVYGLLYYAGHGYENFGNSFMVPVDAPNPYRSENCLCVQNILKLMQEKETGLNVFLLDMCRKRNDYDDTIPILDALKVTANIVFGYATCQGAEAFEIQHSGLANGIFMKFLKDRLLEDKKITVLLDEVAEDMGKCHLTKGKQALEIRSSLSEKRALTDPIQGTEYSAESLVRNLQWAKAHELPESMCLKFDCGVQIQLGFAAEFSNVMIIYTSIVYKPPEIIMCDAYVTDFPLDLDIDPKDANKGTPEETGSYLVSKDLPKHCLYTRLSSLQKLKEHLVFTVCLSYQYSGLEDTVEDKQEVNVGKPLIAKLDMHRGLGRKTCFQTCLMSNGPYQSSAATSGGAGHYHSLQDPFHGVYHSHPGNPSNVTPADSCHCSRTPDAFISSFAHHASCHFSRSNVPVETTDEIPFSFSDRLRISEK
Method: Inhibition of MALT1 activity by a small molecule was evaluated using MALT-1 Fluorogenic Peptide Cleavage Assay. The assay utilizes a quenched AMC-labelled peptide that contains the MALT-1 recognition sequence and cleavage site (LRSR). MALT-1 mediated cleavage of the peptide relieves the quenching and leads to an increase in fluorescence at excitation (342 nm) and emission (441 nm).
The following reagents were obtained commercially and used to prepare standard reagent formulations as further described below: N-2-hydroxyethylpiperazine-N-2-ethane sulfonic acid (HEPES) (1 M, pH 7.5, stored at 4° C.), sodium citrate (stored at RT), tris(2-carboxyethyl)phosphine hydrochloride (T-CEP) (500 mM, stored at −20° C.), ethylenediaminetetraacetic acid (EDTA) (500 mM, stored at RT), dimethylsulfoxide (DMSO, stored at RT), 3-[(3-cholamidopropyl)dimethylammonio]-1-propane sulphate (CHAPS) (stored at RT), dimethylsulfoxide (DMSO), DMSO (Fisher Scientific, stored at RT), Avi-tagged FL MALT-1 (Pharmaron, stored at −70° C.), Ac-LRSR-AMC Peptide (SM Biochemicals, stored at −20° C.), and ultrapure water (MILLI-Q®).
The standard reagent formulations used in this assay were prepared and stored as follows. A 1.1 M solution of sodium citrate (161.3 g, 500 mL) was prepared and stored at room temperature. A 10% (w/v) CHAPS solution (2.0 g, 20 mL) was prepared and stored at 4° C. A 500 mM HEPES solution having pH of 6.89 was prepared from 200 mL of a 1 M HEPES solution having a pH of 7.5 using concentrated hydrochloric acid and brought to a final volume of 400 mL with MILLI-Q© H2O. The substrate, 10 mM Ac-LRSR-AMC Peptide, was prepared (10 mg, 1.370 mL DMSO) and stored at −20° C.
Compounds were plated to provide a 2% DMSO final concentration using a ProxiPlate-384 Plus F Black 384-shallow well microplate. The assay-ready plates were equilibrated to room temperature. A reaction buffer (30 mL total volume) was prepared by combining HEPES (pH 6.89, 25 mM, 1.5 mL), sodium citrate (660 mM, 18.0 mL), T-CEP (1 mM, 0.06 mL), EDTA (0.1 mM, 0.06 mL), CHAPS (0.05%, 0.15 mL), DMSO (2%, 0.6 mL), and MILLI-Q® H2O (10.23 mL; 9.63 mL when backfilled to 2% DMSO) followed by thorough mixing.
MALT-1 was thawed and kept on ice. Peptide substrate was thawed on the bench under ambient conditions. A MALT-1 enzyme working stock was prepared from Avi-tagged FL MALT-1 (40 nM in a prepared reagent volume of […]) and the reaction buffer (13.0 mL). MALT1 working stock (5 μL) was added to each well of the microplate. MALT-1 was pre-incubated with compounds for 30 minutes at room temperature.
Two substrate working stocks (Km and 10×Km) were prepared. The 1×Km substrate was prepared from Ac-LRSR-AMC Peptide (50 μM in a prepared reagent volume of […]) and the reaction buffer (6.965 mL). The 10×Km substrate was prepared from Ac-LRSR-AMC Peptide ([…] in a prepared reagent volume of 196.0 μL) and the reaction buffer (6.804 mL). The reaction was initiated by the addition of substrate working stock (5 μL, 50 μM) to Km plates and the addition of substrate working stock (5 μL 280 μM) to 10×Km plates. The plates were covered and incubated on the bench at room temperature for 90 minutes.
Fluorescence intensity was determined using a CLARIOstar microplate reader (BMG LABTECH) using the optimised AMC mode. Before taking readings, a 70% gain was applied on the neutral control well. Compound data were normalised to % Inhibition and used to plot sigmoidal concentration response curves to yield various parameters including IC50.

SMILES | IC50 [nM]
O=C(Nc1ccc(C(=O)N2CC(O)C2)c(Cl)c1)c1snc(-c2ccccc2)c1C(F)(F)F [I-16, N-(3-CHLORO-4-(3-HYDROXYAZETIDINE-1-CARBONYL)PHENYL)-3-PHENYL-4-(TRIFLUOROMETHYL)ISOTHIAZOLE-5-CARBOXAMIDE] | ≤ 400
O=C(Nc1ccc(C(=O)N2CC(O)C2)c(Cl)c1)c1snc(-c2ccccc2)c1C1CC1 [I-17, N-(3-CHLORO-4-(3-HYDROXYAZETIDINE-1-CARBONYL)PHENYL)-3-PHENYL-4—(CYCLOPROPYL)ISOTHIAZOLE-5-CARBOXAMIDE] | ≤ 400
CN(C(=O)c1snc(-c2ccccc2)c1C(F)(F)F)c1cnc(-n2nccn2)c(Cl)c1 [I-18, N-(5-CHLORO-6-(2H-1,2,3-TRIAZOL-2-YL) PYRIDIN-3-YL)-N-METHYL-3-PHENYL-4-(TRIFLUOROMETHYL)ISOTHIAZOLE-5-CARBOXAMIDE] | ≤ 400
O=C(Nc1cnc(-n2nccn2)c(Cl)c1)c1snc(-c2ncccc2Cl)c1C(F)(F)F [I-19, N-(5-CHLORO-6-(2H-1,2,3-TRIAZOL-2-YL) PYRIDIN-3-YL)-3-(3-CHLOROPYRIDIN-2-YL)-4-(TRIFLUOROMETHYL) ISOTHIAZOLE-5-CARBOXAMIDE] | ≤ 400
N#Cc1cc(NC(=O)c2snc(-c3ncccc3Cl)c2C(F)(F)F)cnc1-n1nccn1 [I-20, 3-(3-CHLOROPYRIDIN-2-YL)-N-(5-CYANO-6-(2H-1,2,3-TRIAZOL-2-YL)PYRIDIN-3-YL)-4-(TRIFLUOROMETHYL)ISOTHIAZOLE-5-CARBOXAMIDE] | ≤ 400
CNC(=O)c1ccc(NC(=O)c2snc(-c3ccccc3)c2C2CC2)cc1Cl [I-23, N-(3-CHLORO-4-(METHYLCARBAMOYL) PHENYL)-4-CYCLOPROPYL-3-PHENYLISOTHIAZOLE-5-CARBOXAMIDE] | ≤ 400
COCCN(C)C(=O)c1ccc(NC(=O)c2snc(-c3ccccc3)c2C2CC2)cc1Cl [I-25, N-(3-CHLORO-4-((2-METHOXYETHYL) (METHYL) CARBAMOYL)PHENYL)-4-CYCLOPROPYL-3-PHENYL-ISOTHIAZOLE-5-CARBOXAMIDE] | ≤ 400
N#Cc1cc(NC(=O)c2snc(-c3ncccc3Cl)c2C2CC2)cnc1-n1nccn1 [I-28, 3-(3-CHLOROPYRIDIN-2-YL)-N-(5-CYANO-6-(2H-1,2,3-TRIAZOL-2-YL)PYRIDIN-3-YL)-4-CYCLOPROPYLISOTHIAZOLE-5-CARBOXAMIDE] | ≤ 400
CN(C)c1ncc(NC(=O)c2snc(-c3ccccc3)c2C2CC2)cc1C#N [I-29, N-(5-CYANO-6-(DIMETHYLAMINO)PYRIDIN-3-YL)-4-CYCLOPROPYL-3-PHENYLISOTHIAZOLE-5-CARBOXAMIDE] | ≤ 400
N#Cc1cc(NC(=O)c2snc(-c3ccccc3)c2C2CC2)ccc1C(=O)N1CC(O)C1 [I-32] | ≤ 400

Next, values leading:

IC50 [nM] | SMILES
≤ 400 | CN(C)C(=O)c1ccc(NC(=O)c2snc(-c3ccccc3)c2C2CC2)cc1Cl [I-21, N-(3-CHLORO-4-(DIMETHYLCARBAMOYL) PHENYL)-4-CYCLOPROPYL-3-PHENYLISOTHIAZOLE-5-CARBOXAMIDE]
≤ 400 | O=C(Nc1ccc(C(=O)N2CCOCC2)c(Cl)c1)c1snc(-c2ccccc2)c1C1CC1 [I-22, N-(3-CHLORO-4-(MORPHOLINE-4-CARBONYL) PHENYL)-4-CYCLOPROPYL-3-PHENYLISOTHIAZOLE-5-CARBOXAMIDE]
≤ 400 | CN(CCO)C(=O)c1ccc(NC(=O)c2snc(-c3ccccc3)c2C2CC2)cc1Cl [I-24, N-(3-CHLORO-4-((2-HYDROXYETHYL) (METHYL)CARBAMOYL)PHENYL)-4-CYCLOPROPYL-3-PHENYLISOTHIAZOLE-5-CARBOXAMIDE]
≤ 400 | O=C(Nc1ccnc(C(F)(F)F)c1)c1snc(-c2ccccc2)c1C1CC1 [I-26, 3-PHENYL-4-CYCLOPROPYL-N-(2-(TRIFLUOROMETHYL)PYRIDIN-4-YL)ISOTHIAZOLE-5-CARBOXAMIDE]
≤ 400 | N#Cc1cc(NC(=O)c2snc(-c3ccccn3)c2C2CC2)cnc1-n1nccn1 [I-27, N-(5-CYANO-6-(2H-1,2,3-TRIAZOL-2-YL) PYRIDIN-3-YL)-4-CYCLOPROPYL-3-(PYRIDIN-2-YL)ISOTHIAZOLE-5-CARBOXAMIDE]
≤ 400 | N#Cc1cncc(NC(=O)c2snc(-c3ccccc3)c2C2CC2)c1 [I-30, N-(5-CYANOPYRIDIN-3-YL)-4-CYCLOPROPYL-3-PHENYLISOTHIAZOLE-5-CARBOXAMIDE]
≤ 400 | O=C(Nc1cnc(-n2nccn2)c(Cl)c1)c1snc(-c2cnc3ccccn23)c1C(F)(F)F [I-31]
≤ 400 | Cc1ncc(NC(=O)c2snc(-c3ccccc3)c2C2CC2)cc1Cl [I-33]
≤ 400 | N#Cc1cc(NC(=O)c2snc(C3CCOCC3)c2C(F)(F)F)cnc1-n1nccn1 [I-34]
≤ 400 | O=C(Nc1cnc(-n2nccn2)c(Cl)c1)c1snc(-c2cccc3ncccc23)c1C(F)(F)F [I-35, N-(5-CHLORO-6-(2H-1,2,3-TRIAZOL-2-YL) PYRIDIN-3-YL)-3-(QUINOLIN-5-YL)-4-(TRIFLUOROMETHYL)ISOTHIAZOLE-5-CARBOXAMIDE]
≤ 400 | Cn1cc(-c2nsc(C(=O)Nc3cnc(-n4nccn4)c(C#N)c3)c2C(F)(F)F)ccc1=O [I-36, N-(5-CYANO-6-(2H-1,2,3-TRIAZOL-2-YL)PYRIDIN-3-YL)-3-(1-METHYL-6-OXO-1,6-DIHYDROPYRIDIN-3-YL)-4-(TRIFLUORO-METHYL)ISOTHIAZOLE-5-CARBOXAMIDE]
400 to 1000 | Cn1cc(-c2nsc(C(=O)Nc3cnc(-n4nccn4)c(C#N)c3)c2C(F)(F)F)cn1 [I-37, N-(5-CYANO-6-(2H-1,2,3-TRIAZOL-2-YL)PYRIDIN-3-YL)-3-(1-METHYL-1H-PYRAZOL-4-YL)-4-(TRIFLUORO-METHYL)ISOTHIAZOLE-5-CARBOXAMIDE]
≤ 400 | CC(C)c1nsc(C(=O)Nc2cnc(-n3nccn3)c(C#N)c2)c1C(F)(F)F [I-38, N-(5-CYANO-6-(2H-1,2,3-TRIAZOL-2-YL) PYRIDIN-3-YL)-3-ISOPROPYL-4-(TRIFLUOROMETHYL)ISOTHIAZOLE-5-CARBOXAMIDE]
≤ 400 | COc1c(-c2ccccc2)nsc1C(=O)Nc1cnc(-n2nccn2)c(Cl)c1 [I-39, N-(5-CHLORO-6-(2H-1,2,3-TRIAZOL-2-YL) PYRIDIN-3-YL)-4-METHOXY-3-PHENYLISOTHIAZOLE-5-CARBOXAMIDE]
≤ 400 | COc1ncc(NC(=O)c2snc(-c3ccccc3)c2C2CC2)cc1Cl [I-40, N-(5-CHLORO-6-METHOXYPYRIDIN-3-YL)-4-CYCLOPROPYL-3-PHENYLISOTHIAZOLE-5-CARBOXAMIDE]

— patent US20260124222A1, “ISOTHIAZOLYLCARBOXAMIDE COMPOUNDS AND THEIR USE IN THERAPY” (HOTSPOT THERAPEUTICS, INC., priority 2022, published 2026)
